Data as given in patent US20230096051A1, “CGRP ANTIGONISTS USEFUL AS TRACER COMPOUNDS FOR POSITRON EMISSION TOMOGRAPHY” (Eli Lilly and Company, priority 2019, published 2023).
Where two headings read alike, the source gives them in different places.

Assay: In vivo rat tracer distribution and brain uptake (LC-MS/MS)
Set-up: species or system Sprague-Dawley rats
Conditions: Sprague-Dawley, iv, 10 μg/kg i.v.
Procedure: Stock Formulation: Prepare a tracer stock solution at 0.5 mg/mL in 25% HP-BCD/PW (corrected for salt weight). Vortex thoroughly for 30 sec and place in bath sonication for 30 mins. Confirm the stock formulation is a clear solution or homogeneous suspension. Acid (10 μL acetic acid) or base (10 μL 5N NaOH), probe sonication, or a sonic bath may be used to aid in solubilization.
Final Dosing Formulation: If the stock formulation is a solution or homogeneous suspension, allow the stock solution to sit at room temperature for 5 min, and confirm and document the appearance of the stock formulation. Dilute the stock solution to the appropriate dose concentrations with 25% HP-BCD/PW. Vortex the final dosing solutions for 30 sec. Final tracer dosing solution is used for generation of the LC/MS/MS calibration standards in the appropriate matrix.
Study populations: Animal studies are performed under protocols approved by Eli Lilly and Company and PreClinOmics Institutional Animal Care and Use Committee. Twenty Sprague-Dawley rats weighing 200-300 g are obtained from Harlan Sprague Dawley Inc. (Indianapolis, Ind.) and are randomized into 4 groups of 5 animals each. Animals have access to food and water ad libitum before the study.
Live Phase Methods: Five animals per dose group are used. Each animal receives 10 μg/kg of the CGRP tracer compound administered intravenously in the lateral tail vein. Animals are euthanized by cervical dislocation followed by decapitation or live decapitation after 5, 10, 20 or 40 min survival intervals.
Trunk blood is collected in EDTA-coated Eppendorf tubes and stored on wet ice until study completion. The whole brain is rapidly removed, and lightly rinsed with sterile water. Frontal cortex, hippocampus, cerebellum, brainstem, and striatum brain tissues are dissected, weighed, stored in 1.5 mL Eppendorf tubes, and placed on wet ice until completion of live phase study.
Using a drug naïve test subject, blood and seven cortical brain tissues samples are collected for use in generating blank and standard curve samples.
Tissue—Tissue samples are kept on wet ice until the completion of the live phase. Tissue samples collected from test and naïve subjects are homogenized at PreClinOmics (Indianapolis, Ind., USA) and immediately taken to AIT Bioscience (Indianapolis, Ind., USA) on wet ice to be centrifuged along with an excel sheet indicating tissue weights, amount of ACN+0.1% HCOOH added to all tissue samples, and how the naive tissues were spiked for standards. Details on processing at PreClinOmics are as follows:
ACN containing 0.1% HCOOH is added to each tissue sample at a volume of four times the weight of the tissue sample (e.g., Add 600 μL ACN to a 150 mg brain tissue). The sample is homogenized via probe sonication. The standard curve is a 6-point curve with the range of 0.3-60 ng/g, linear regression, correlation coefficient, R^2, minimum of ≥0.95. Calibration standards are prepared from control tissue matrix homogenate (of the same organ) spiked with a calculated volume of standard (prepared from the tracer dosing solution used during the live phase). The homogenized tissue samples and spiked standards are transferred to AIT Bioscience on wet ice. Once at AIT Biosciences, all homogenized samples are centrifuged for 20 min at 14,000 rpm. The supernatant solution is diluted with an internal standard solution (1.0 ng/mL diphenhydramine in water) at a ratio of 1:4. Following dilution of the supernatant, if the total sample volume in the well plate is too small for injection, an additional dilution is performed using the mobile phase, ACN:water:0.1% HCOOH (20:80:0.1), at a ratio of 1:1. This solution is mixed thoroughly and analyzed via LC/MS/MS for tracer compound. Additional dilutions incurred due to small sample volume have an appropriate dilution factor applied during regression analysis.
Blood Samples—Whole blood samples are kept on wet ice until the completion of the live phase. […]

[1] = brain stem, read-out: Mean tracer concentration ± SEM, Brain Stem
[2] = cerebellum, read-out: Mean tracer concentration ± SEM, Cerebellum
[3] = frontal cortex, read-out: Mean tracer concentration ± SEM, Frontal Cortex
[4] = hippocampus, read-out: Mean tracer concentration ± SEM, Hippocampus
[5] = plasma, read-out: Mean tracer conc (plasma) ± SEM
[6] = striatum, read-out: Mean tracer concentration ± SEM, Striatum

| Compound | concentration at 5 min [1] [ng/g] | concentration at 10 min [1] [ng/g] | concentration at 20 min [1] [ng/g] | concentration at 40 min [1] [ng/g] | concentration at 5 min [2] [ng/g] | concentration at 10 min [2] [ng/g] | concentration at 20 min [2] [ng/g] | concentration at 40 min [2] [ng/g] | concentration at 5 min [3] [ng/g] | concentration at 10 min [3] [ng/g] | concentration at 20 min [3] [ng/g] | concentration at 40 min [3] [ng/g] | concentration at 5 min [4] [ng/g] | concentration at 10 min [4] [ng/g] | concentration at 20 min [4] [ng/g] | concentration at 40 min [4] [ng/g] | concentration at 5 min [5] [ng/mL] | concentration at 10 min [5] [ng/mL] | concentration at 20 min [5] [ng/mL] | concentration at 40 min [5] [ng/mL] | further results |
| --- | --- | --- | --- | --- | --- | --- | --- | --- | --- | --- | --- | --- | --- | --- | --- | --- | --- | --- | --- | --- | --- |
| Cc1cc(N2CCC2)cc(OCc2ccc([C@@H](C)[C@@]3(C)C(=O)NC[C@@H]3CF)cc2)n1 [Example 1, (3R,4R)-3-[(1R)-1-[4-[[4-(azetidin-1-yl)-6-methyl-2-pyridyl]oxymethyl]phenyl]ethyl]-4-(fluoromethyl)-3-methyl-pyrrolidin-2-one] | 3.69 ± 0.29 | 2.46 ± 0.09 | 1.21 ± 0.08 | 0.41 ± 0.03 | 3.52 ± 0.16 | 1.91 ± 0.05 | 0.9 ± 0.06 | 0.28 ± 0.02 | 4.19 ± 0.29 | 2.27 ± 0.05 | 0.98 ± 0.06 | 0.29 ± 0.02 | 3.52 ± 0.32 | 2.33 ± 0.09 | 1.06 ± 0.07 | 0.33 ± 0.02 | 6.3 ± 0.63 | 3.37 ± 0.37 | 1.72 ± 0.12 | 0.48 ± 0.05 | concentration at 5 min [6]: 3.94 ± 0.32 ng/g; concentration at 10 min [6]: 2.44 ± 0.13 ng/g; concentration at 20 min [6]: 1.12 ± 0.07 ng/g; concentration at 40 min [6]: 0.34 ± 0.02 ng/g |
| Cc1cc(N2CC(F)C2)cc(OCc2ccc([C@@H](C)[C@@]3(C)C(=O)NC[C@@H]3C)cc2)n1 [Example 2, (3R,4R)-3-[(1R)-1-[4-[[4-(3-fluoroazetidin-1-yl)-6-methyl-2-pyridyl]oxymethyl]phenyl]ethyl]-3,4-dimethyl-pyrrolidin-2-one] | 8.73 ± 0.51 | 5.27 ± 0.85 | 2.56 ± 0.33 | 1.08 ± 0.08 | 8.76 ± 0.48 | 4.78 ± 0.78 | 2.08 ± 0.22 | 0.88 ± 0.11 | 9.48 ± 0.57 | 5.07 ± 0.56 | 2.19 ± 0.24 | 0.8 ± 0.09 | 7.66 ± 0.42 | 4.64 ± 0.78 | 2.29 ± 0.36 | 0.74 ± 0.14 | 9.82 ± 0.82 | 5.54 ± 0.8 | 2.88 ± 0.37 | 1.03 ± 0.12 | concentration at 5 min [6]: 9.36 ± 0.54 ng/g; concentration at 10 min [6]: 5.23 ± 0.91 ng/g; concentration at 20 min [6]: 2.42 ± 0.28 ng/g; concentration at 40 min [6]: 1.06 ± 0.16 ng/g |
| Cc1cc(N2CC(F)C2)cc(OCc2ccc([C@@H](C)[C@@]3(C)C(=O)NC[C@@H]3CF)cc2)n1 [Example 3, (3R,4R)-3-[(1R)-1-[4-[[4-(3-fluoroazetidin-1-yl)-6-methyl-2-pyridyl]oxymethyl]phenyl]ethyl]-4-(fluoromethyl)-3-methyl-pyrrolidin-2-one] | 3.13 ± 0.22 | 2.01 ± 0.17 | 1.18 ± 0.06 | 0.42 ± 0.02 | 3.06 ± 0.22 | 1.76 ± 0.13 | 0.88 ± 0.06 | 0.31 ± 0.02 | 3.55 ± 0.33 | 1.92 ± 0.16 | 0.92 ± 0.05 | 0.31 ± 0.02 | 2.9 ± 0.2 | 1.91 ± 0.14 | 1.01 ± 0.06 | 0.34 ± 0.02 | 6.2 ± 0.5 | 3.65 ± 0.26 | 1.94 ± 0.15 | 0.73 ± 0.04 | concentration at 5 min [6]: 3.57 ± 0.28 ng/g; concentration at 10 min [6]: 2.14 ± 0.16 ng/g; concentration at 20 min [6]: 1.09 ± 0.07 ng/g; concentration at 40 min [6]: 0.36 ± 0.04 ng/g |
